Test results as given in ChEMBL document CHEMBL1201861, “Genomics of Drug Sensitity in Cancer screening data, Wellcome Trust Sanger Institute”.

Legend:
Calu-3 = assay: cells; format: functional, cell-based, Homo sapiens; settings: Homo sapiens, Calu-3;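 note: growth inhibition of human Calu-3 cells, determined with a cell viability assay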
Description: SANGER: Inhibition of human Calu-3 cell growth in a cell viability assay.

D-566MG = assay: cells; format: functional, cell-based, Homo sapiens; settings: Homo sapiens, D-566MG
H9 = assay: cells; format: functional, cell-based, Homo sapiens; settings: Homo sapiens, H9
Description: SANGER: Inhibition of human H9 cell growth in a cell viability assay.

HCC1419 = assay: cells; format: functional, cell-based, Homo sapiens; settings: Homo sapiens, HCC1419;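 note: growth inhibition of human HCC1419 cells, read out as cell viability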
Description: SANGER: Inhibition of human HCC1419 cell growth in a cell viability assay.

HO-1-N-1 = assay: cells; format: functional, cell-based, Homo sapiens; settings: Homo sapiens, HO-1-N-1;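 note: growth inhibition of human HO-1-N-1 cells, read out with a cell viability assay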
Description: SANGER: Inhibition of human HO-1-N-1 cell growth in a cell viability assay.

HT-29 = assay: cells; format: functional, cell-based, Homo sapiens; settings: Homo sapiens, HT-29;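 note: growth inhibition of human HT-29 cells, read out by a cell viability assay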
Description: SANGER: Inhibition of human HT-29 cell growth in a cell viability assay.

IGR-1 = assay: cells; format: functional, cell-based, Homo sapiens; settings: Homo sapiens, IGR-1;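 note: growth inhibition of human IGR-1 cells, read out with a cell viability assay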
Description: SANGER: Inhibition of human IGR-1 cell growth in a cell viability assay.

KOSC-2 = assay: cells; format: functional, cell-based, Homo sapiens; settings: Homo sapiens, KOSC-2;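 note: growth inhibition of KOSC-2 cells, read out by a cell viability assay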
Description: SANGER: Inhibition of human KOSC-2 cell growth in a cell viability assay.

LU-135 = assay: cells; format: functional, cell-based, Homo sapiens; settings: Homo sapiens, LU-135
Description: SANGER: Inhibition of human LU-135 cell growth in a cell viability assay.

MDA-MB-157 = assay: cells; format: functional, cell-based, Homo sapiens; settings: Homo sapiens, MDA-MB-157
Description: SANGER: Inhibition of human MDA-MB-157 cell growth in a cell viability assay.

MHH-ES-1 = assay: cells; format: functional, cell-based, Homo sapiens; settings: Homo sapiens, MHH-ES-1
Description: SANGER: Inhibition of human MHH-ES-1 cell growth in a cell viability assay.

MIA PaCa-2 = assay: cells; format: functional, cell-based, Homo sapiens; settings: Homo sapiens, MIA PaCa-2;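 note: growth inhibition of MIA PaCa-2 cells, read out with a cell viability assay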
Description: SANGER: Inhibition of human MIA-PaCa-2 cell growth in a cell viability assay.

NCI-H2342 = assay: cells; format: functional, cell-based, Homo sapiens; settings: Homo sapiens, NCI-H2342;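 note: growth inhibition of the cancer cell line, determined with a cell viability assay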
Description: SANGER: Inhibition of human NCI-H2342 cell growth in a cell viability assay.

NCI-H2405 = assay: cells; format: functional, cell-based, Homo sapiens; settings: Homo sapiens, NCI-H2405;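 note: growth inhibition of the human cell line, read out with a cell viability assay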
Description: SANGER: Inhibition of human NCI-H2405 cell growth in a cell viability assay.

NCI-H2452 = assay: cells; format: functional, cell-based, Homo sapiens; settings: Homo sapiens, NCI-H2452;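 note: growth inhibition of NCI-H2452 cells, read out with a cell viability assay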
Description: SANGER: Inhibition of human NCI-H2452 cell growth in a cell viability assay.

OAW-42 = assay: cells; format: functional, cell-based, Homo sapiens; settings: Homo sapiens, OAW-42;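 note: growth inhibition of OAW-42 cells, read out with a cell viability assay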
Description: SANGER: Inhibition of human OAW-42 cell growth in a cell viability assay.

PC-14 = assay: cells; format: functional, cell-based, Homo sapiens; settings: Homo sapiens, PC-14;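 note: cell viability assay measuring inhibition of PC-14 cell growth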
Description: SANGER: Inhibition of human PC-14 cell growth in a cell viability assay.

RH-18 = assay: cells; format: functional, cell-based, Homo sapiens; settings: Homo sapiens, Rh18;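 note: growth inhibition of human RH-18 cells, read out with a cell viability assay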
Description: SANGER: Inhibition of human RH-18 cell growth in a cell viability assay.

RMG-I = assay: cells; format: functional, cell-based, Homo sapiens; settings: Homo sapiens, RMG-I;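 note: growth inhibition of human RMG-I cells, read out with a cell viability assay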
Description: SANGER: Inhibition of human RMG-I cell growth in a cell viability assay.

SW 1116 = assay: cells; format: functional, cell-based, Homo sapiens; settings: Homo sapiens, SW 1116;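 note: growth inhibition of SW1116 cells, read out with a cell viability assay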
Description: SANGER: Inhibition of human SW1116 cell growth in a cell viability assay.

SW948 = assay: cells; format: functional, cell-based, Homo sapiens; settings: Homo sapiens, SW948;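 note: growth inhibition of SW948 cells, read out with a cell viability assay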
Description: SANGER: Inhibition of human SW948 cell growth in a cell viability assay.

SiHa = assay: cells; format: functional, cell-based, Homo sapiens; settings: Homo sapiens, SiHa;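 note: Viability-based readout of growth inhibition in SiHa cells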
Description: SANGER: Inhibition of human SiHa cell growth in a cell viability assay.

T47D = assay: cells; format: functional, cell-based, Homo sapiens; settings: Homo sapiens, T47D;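 note: growth inhibition of human T47D cells, measured with a cell viability assay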
Description: SANGER: Inhibition of human T47D cell growth in a cell viability assay.

A204 = assay: cells; format: functional, cell-based, Homo sapiens; settings: Homo sapiens, A204;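 note: growth inhibition of human A204 cells, read out with a cell viability assay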
Description: SANGER: Inhibition of human A204 cell growth in a cell viability assay.

ABC-1 = assay: cells; format: functional, cell-based, Homo sapiens; settings: Homo sapiens, ABC-1;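 note: growth inhibition of human ABC-1 cells, read out by a cell viability assay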
Description: SANGER: Inhibition of human ABC-1 cell growth in a cell viability assay.

CAL-39 = assay: cells; format: functional, cell-based, Homo sapiens; settings: Homo sapiens, CAL-39;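 note: cell viability assay measuring growth inhibition of CAL-39 cells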
Description: SANGER: Inhibition of human CAL-39 cell growth in a cell viability assay.

CAL-72 = assay: cells; format: functional, cell-based, Homo sapiens; settings: Homo sapiens, CAL-72;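 note: cell viability assay measuring inhibition of proliferation in the CAL-72 cell line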
Description: SANGER: Inhibition of human CAL-72 cell growth in a cell viability assay.

CAL-85-1 = assay: cells; format: functional, cell-based, Homo sapiens; settings: Homo sapiens, CAL-85-1;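 note: growth inhibition of human CAL-85-1 cells, read out with a cell viability assay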
Description: SANGER: Inhibition of human CAL-85-1 cell growth in a cell viability assay.

TGBC11TKB = assay: cells; format: functional, cell-based, Homo sapiens; settings: Homo sapiens, TGBC11TKB;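 note: growth inhibition of human TGBC11TKB cells, measured by a cell viability assay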
Description: SANGER: Inhibition of human TGBC11TKB cell growth in a cell viability assay.

TI-73 = assay: cells; format: functional, cell-based, Homo sapiens; settings: Homo sapiens, TI-73;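 note: cell viability assay measuring how much compounds suppress growth of the cultured cell line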
Description: SANGER: Inhibition of human TI-73 cell growth in a cell viability assay.

TYK-nu = assay: cells; format: functional, cell-based, Homo sapiens; settings: Homo sapiens, TYK-nu;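 note: growth inhibition of human TYK-nu cells, read out by a cell viability assay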
Description: SANGER: Inhibition of human TYK-nu cell growth in a cell viability assay.

Calu-1 = assay: SANGER: Inhibition of human Calu-1 cell growth in a cell viability assay.; format: functional, cell-based; settings: Homo sapiens, Calu-1
Caov-3 cell line = assay: cells; format: functional, cell-based, Homo sapiens; settings: Homo sapiens, Caov-3;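 note: cell growth inhibition read out by a viability assay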
Description: SANGER: Inhibition of human Caov-3 cell growth in a cell viability assay.

DMS-53 = assay: cells; format: functional, cell-based, Homo sapiens; settings: Homo sapiens, DMS-53;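 note: cell viability assay measuring growth inhibition of human DMS-53 cells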
Description: SANGER: Inhibition of human DMS-53 cell growth in a cell viability assay.

DV-90 = assay: cells; format: functional, cell-based, Homo sapiens; settings: Homo sapiens, DV-90;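 note: Read-out is a viability assay, with IC50 reflecting the drop in DV-90 cell growth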
Description: SANGER: Inhibition of human DV-90 cell growth in a cell viability assay.

HCC1143 = assay: cells; format: functional, cell-based, Homo sapiens; settings: Homo sapiens, HCC1143;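 note: growth inhibition of human HCC1143 cells, read out with a cell viability assay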
Description: SANGER: Inhibition of human HCC1143 cell growth in a cell viability assay.

IM-9 = assay: SANGER: Inhibition of human IM-9 cell growth in a cell viability assay.; format: functional, cell-based; settings: Homo sapiens, IM-9
LC-1F = assay: cells; format: functional, cell-based, Homo sapiens; settings: Homo sapiens, LC-1F;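 note: growth inhibition of human LC-1F cells, read out with a cell viability assay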
Description: SANGER: Inhibition of human LC-1F cell growth in a cell viability assay.

NCI-H64 = assay: cells; format: functional, cell-based, Homo sapiens; settings: Homo sapiens, NCI-H64;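 note: growth inhibition of NCI-H64 cells, read out with a cell viability assay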
Description: SANGER: Inhibition of human NCI-H64 cell growth in a cell viability assay.

PLC-PRF-5 = assay: cells; format: functional, cell-based, Homo sapiens; settings: Homo sapiens, PLC-PRF-5;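 note: growth inhibition of human PLC-PRF-5 cells, read out with a viability assay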
Description: SANGER: Inhibition of human PLC-PRF-5 cell growth in a cell viability assay.

RT-4 = assay: SANGER: Inhibition of human RT4 cell growth in a cell viability assay.; format: functional, cell-based; settings: Homo sapiens, RT-4
SCC-3 = assay: cells; format: functional, cell-based, Homo sapiens; settings: Homo sapiens, SCC-3;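 note: cell viability assay measuring inhibition of SCC-3 cell growth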
Description: SANGER: Inhibition of human SCC-3 cell growth in a cell viability assay.

SK-CO-1 = assay: cells; format: functional, cell-based, Homo sapiens; settings: Homo sapiens, SK-CO-1;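 note: growth inhibition of SK-CO-1 cells, determined by a viability readout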
Description: SANGER: Inhibition of human SK-CO-1 cell growth in a cell viability assay.

SK-MEL-28 = assay: cells; format: functional, cell-based, Homo sapiens; settings: Homo sapiens, SK-MEL-28;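 note: growth inhibition of human SK-MEL-28 cells, read out with a cell viability assay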
Description: SANGER: Inhibition of human SK-MEL-28 cell growth in a cell viability assay.

COLO 205 = assay: cells; format: functional, cell-based, Homo sapiens; settings: Homo sapiens, COLO 205
Description: SANGER: Inhibition of human COLO-205 cell growth in a cell viability assay.

EW-12 = assay: SANGER: Inhibition of human EW-12 cell growth in a cell viability assay.; format: functional, cell-based
SKM-1 = assay: SANGER: Inhibition of human SKM-1 cell growth in a cell viability assay.; format: functional, cell-based

For `Cn1cnc2c(F)c(Nc3ccc(Br)cc3Cl)c(C(=O)NOCCO)cc21` [SELUMETINIB], the IC50 (Calu-3) was over 4000 nM, the IC50 (D-566MG) was over 4000 nM and the IC50 (H9) was 22.9 nM. It also gave an IC50 (HCC1419) of over 4000 nM, an IC50 (HO-1-N-1) of 741 nM and an IC50 (HT-29) of 873 nM. The IC50 (IGR-1) was over 4000 nM, the IC50 (KOSC-2) was over 4000 nM and the IC50 (LU-135) was over 4000 nM. The IC50 (MDA-MB-157) was over 4000 nM, the IC50 (MHH-ES-1) was over 4000 nM and the IC50 (MIA PaCa-2) was 898 nM. The IC50 (NCI-H2342) was over 4000 nM, the IC50 (NCI-H2405) was over 4000 nM and the IC50 (NCI-H2452) was over 4000 nM. The IC50 (OAW-42) was over 4000 nM, the IC50 (PC-14) was over 4000 nM and the IC50 (RH-18) was over 4000 nM. The IC50 (RMG-I) was over 4000 nM, the IC50 (SW 1116) was over 4000 nM and the IC50 (SW948) was over 4000 nM. The IC50 (SiHa) was over 4000 nM, the IC50 (T47D) was over 4000 nM and the IC50 (A204) was 1520 nM. It also gave an IC50 (ABC-1) of over 4000 nM, an IC50 (CAL-39) of 332 nM and an IC50 (CAL-72) of over 4000 nM. For the same compound, the IC50 (CAL-85-1) was over 4000 nM, the IC50 (TGBC11TKB) was over 4000 nM and the IC50 (TI-73) was over 4000 nM. For the same compound, the IC50 (TYK-nu) was over 4000 nM.

`N#Cc1c(O)c2c(-c3ccc(-c4ccccc4O)cc3)csc2[nH]c1=O` gave an IC50 (Calu-1) of over 1020 nM, an IC50 (Calu-3) of over 1020 nM and an IC50 (Caov-3 cell line) of over 1020 nM. The IC50 (DMS-53) was over 1020 nM, the IC50 (DV-90) was over 1020 nM and the IC50 (HCC1143) was over 1020 nM. It also gave an IC50 (HCC1419) of over 1020 nM, an IC50 (HO-1-N-1) of over 1020 nM and an IC50 (HT-29) of over 1020 nM. The IC50 (IGR-1) was over 1020 nM, the IC50 (IM-9) was over 1020 nM and the IC50 (KOSC-2) was over 1020 nM. For the same compound, the IC50 (LC-1F) was over 1020 nM, the IC50 (MDA-MB-157) was 824 nM and the IC50 (MHH-ES-1) was over 1020 nM. The IC50 (MIA PaCa-2) was over 1020 nM, the IC50 (NCI-H2342) was over 1020 nM and the IC50 (NCI-H2405) was over 1020 nM. It also gave an IC50 (NCI-H2452) of over 1020 nM, an IC50 (NCI-H64) of over 1020 nM and an IC50 (OAW-42) of over 1020 nM. For the same compound, the IC50 (PC-14) was over 1020 nM, the IC50 (PLC-PRF-5) was over 1020 nM and the IC50 (RMG-I) was over 1020 nM. The IC50 (RT-4) was over 1020 nM, the IC50 (SCC-3) was over 1020 nM and the IC50 (SK-CO-1) was over 1020 nM. The IC50 (SK-MEL-28) was over 1020 nM, the IC50 (SW948) was over 1020 nM and the IC50 (SiHa) was over 1020 nM. For the same compound, the IC50 (T47D) was over 1020 nM, the IC50 (A204) was over 1020 nM and the IC50 (ABC-1) was over 1020 nM. It also gave an IC50 (CAL-39) of over 1020 nM, an IC50 (CAL-72) of over 1020 nM and an IC50 (CAL-85-1) of over 1020 nM. The IC50 (TYK-nu) was over 1020 nM and the IC50 (COLO 205) was over 1020 nM.

`C#Cc1cccc(Nc2ncnc3cc(OCCOC)c(OCCOC)cc23)c1` [ERLOTINIB] showed an IC50 (EW-12) of over 2000 nM, an IC50 (IM-9) of over 2000 nM and an IC50 (LC-1F) of 606 nM. The IC50 (NCI-H64) was over 2000 nM, the IC50 (SCC-3) was over 2000 nM and the IC50 (SKM-1) was over 2000 nM.

With `CC(C)CCN1c2nc(Nc3cc(F)c(O)c(F)c3)ncc2N(C)C(=O)C1C` (centres undefined) the IC50 (Calu-3) was over 5000 nM, the IC50 (D-566MG) was 2910 nM and the IC50 (H9) was 60.2 nM. For the same compound, the IC50 (HCC1419) was over 5000 nM, the IC50 (HO-1-N-1) was 3800 nM and the IC50 (HT-29) was over 5000 nM. The IC50 (IGR-1) was 4100 nM, the IC50 (KOSC-2) was 1130 nM and the IC50 (LU-135) was over 5000 nM. The IC50 (MDA-MB-157) was 4310 nM, the IC50 (MHH-ES-1) was 4830 nM and the IC50 (MIA PaCa-2) was 4360 nM. For the same compound, the IC50 (NCI-H2342) was over 5000 nM, the IC50 (NCI-H2405) was over 5000 nM and the IC50 (NCI-H2452) was over 5000 nM. For the same compound, the IC50 (OAW-42) was over 5000 nM, the IC50 (PC-14) was over 5000 nM and the IC50 (RH-18) was over 5000 nM. The IC50 (RMG-I) was over 5000 nM, the IC50 (SK-MEL-28) was over 5000 nM and the IC50 (SW 1116) was over 5000 nM. For the same compound, the IC50 (SW948) was over 5000 nM, the IC50 (SiHa) was over 5000 nM and the IC50 (T47D) was over 5000 nM. The IC50 (A204) was over 5000 nM, the IC50 (ABC-1) was over 5000 nM and the IC50 (CAL-39) was 4940 nM. It also gave an IC50 (CAL-72) of over 5000 nM, an IC50 (CAL-85-1) of over 5000 nM and an IC50 (TGBC11TKB) of over 5000 nM. The IC50 (TI-73) was over 5000 nM and the IC50 (TYK-nu) was 3540 nM.

Work on `CCN(CC)CCCCNc1ncc2cc(-c3cc(OC)cc(OC)c3)c(NC(=O)NC(C)(C)C)nc2n1` [PD-173074] yielded an IC50 (Calu-3) of over 2000 nM, an IC50 (D-566MG) of over 2000 nM and an IC50 (H9) of over 2000 nM. For the same compound, the IC50 (HCC1419) was over 2000 nM, the IC50 (HO-1-N-1) was over 2000 nM and the IC50 (HT-29) was over 2000 nM. It also gave an IC50 (IGR-1) of over 2000 nM, an IC50 (KOSC-2) of over 2000 nM and an IC50 (LU-135) of over 2000 nM. It also gave an IC50 (MDA-MB-157) of over 2000 nM, an IC50 (MHH-ES-1) of over 2000 nM and an IC50 (MIA PaCa-2) of over 2000 nM. The IC50 (NCI-H2342) was over 2000 nM, the IC50 (NCI-H2405) was over 2000 nM and the IC50 (NCI-H2452) was over 2000 nM. For the same compound, the IC50 (OAW-42) was over 2000 nM, the IC50 (PC-14) was over 2000 nM and the IC50 (RH-18) was over 2000 nM. It also gave an IC50 (RMG-I) of over 2000 nM, an IC50 (SK-MEL-28) of over 2000 nM and an IC50 (SW 1116) of over 2000 nM. For the same compound, the IC50 (SW948) was over 2000 nM, the IC50 (SiHa) was over 2000 nM and the IC50 (T47D) was over 2000 nM. It also gave an IC50 (A204) of over 2000 nM, an IC50 (ABC-1) of over 2000 nM and an IC50 (CAL-39) of over 2000 nM. It also gave an IC50 (CAL-72) of over 2000 nM, an IC50 (CAL-85-1) of over 2000 nM and an IC50 (TGBC11TKB) of over 2000 nM. It also gave an IC50 (TI-73) of over 2000 nM and an IC50 (TYK-nu) of over 2000 nM.
